Reference: patent US6833372B2, “Non-peptide GnRH agents, Pharmaceutical compositions, and methods for their use” (Pfizer, Inc., priority 2002, dated 2004)
Values joined by “and” are separate entries in the source; they are usually repeats but may differ in a detail not shown here. Equal entries are not always repeated.

How the values were obtained:
[1] = In vitro metabolism: disappearance of parent compound in rat liver microsomes (male, female); assay type: in vitro ADME; conditions: 5 uM compound, 30 minutes 37° C.; for Fem. Rat (FR) % rem. 30′: female rat liver microsomes; for Male Rat (MR) % rem. 30′: male rat liver microsomes
Protocol: (§1) Human, rat, dog, and monkey liver microsomes were isolated by differential centrifugation. Specimens of human liver were obtained from the International Institute for the Advancement of Medicine (Scranton, Pa.). The disappearance of the parent compound was studied in a mixture containing 5 uM compound, 0.5 mg/ml microsomal protein, and 2 mM NADPH in 50 mM K phosphate buffer, pH 7.4. Samples were incubated for 30 minutes at 37° C. The reaction was terminated by the addition of acetonitrile and compounds analyzed by LC-MS as described above.

[2] = In vitro metabolism: disappearance of parent compound in human liver microsomes; assay type: in vitro ADME; conditions: 5 uM compound, 0.5 mg/ml protein, 2 mM NADPH, 30 minutes 37° C.
Protocol: as §1

human GnRH receptors = molecular target: T1, human GnRH receptors (Homo sapiens, UniProt P30968); assay: Radioligand binding: inhibition of 125I-GnRH-A binding to human GnRH receptor membranes; conditions: HEK 293 cell membranes
T1 construct: expressed in transfected cells; host or cells: HEK 293 cells, stably transfected; membranes
T1 sequence (P30968 1-328): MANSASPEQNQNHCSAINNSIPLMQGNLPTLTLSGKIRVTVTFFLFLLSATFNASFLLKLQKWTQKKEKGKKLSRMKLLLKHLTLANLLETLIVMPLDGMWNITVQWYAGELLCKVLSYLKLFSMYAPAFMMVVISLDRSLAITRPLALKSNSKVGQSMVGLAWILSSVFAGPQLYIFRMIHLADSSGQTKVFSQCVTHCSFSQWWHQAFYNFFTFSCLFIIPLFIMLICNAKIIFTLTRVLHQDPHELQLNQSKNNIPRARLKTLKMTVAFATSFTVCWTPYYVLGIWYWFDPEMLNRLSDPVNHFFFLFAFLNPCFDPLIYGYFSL
Procedure, shortened: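 Membranes from rat pituitaries, or HEK 293 cells stably expressing mouse or human receptor, incubated 1 hour at room temperature with ~0.04-0.06 nM radioligand (HEPES pH 7.4, EDTA, MgCl2, BSA) and competitor at 0.1-10,000 nM. Bound ligand collected by GF/C filtration and counted; Ki derived from IC50 by Cheng-Prusoff.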

rat GnRH receptor = molecular target: T2, rat GnRH receptor (Rattus norvegicus, UniProt P30969); assay: Radioligand binding: inhibition of 125I-GnRH-A binding to rat GnRH receptor (rat pituitary membranes); conditions: read-out: Ki (nM), Inhibition Binding of 125I-GnRH-A to GnRH Receptors
T2 construct: or rat pituitaries (Pel Freez Biologicals, Rogers, Ark.) were homogenized; tissue Pel Freez Biologicals; host or cells: rat pituitaries (membrane preparation)
T2 sequence (P30969 1-327): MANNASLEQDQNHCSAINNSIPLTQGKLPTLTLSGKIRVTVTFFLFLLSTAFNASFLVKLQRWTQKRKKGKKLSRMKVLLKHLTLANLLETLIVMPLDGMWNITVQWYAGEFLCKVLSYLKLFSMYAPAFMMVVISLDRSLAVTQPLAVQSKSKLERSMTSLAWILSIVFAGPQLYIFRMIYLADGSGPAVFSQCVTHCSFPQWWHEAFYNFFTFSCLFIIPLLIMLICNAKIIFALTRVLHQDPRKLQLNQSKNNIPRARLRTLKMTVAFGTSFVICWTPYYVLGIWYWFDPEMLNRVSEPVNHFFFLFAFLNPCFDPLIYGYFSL
Protocol: HEK 293 cells containing mouse or human receptors, or rat pituitaries (Pel Freez Biologicals, Rogers, Ark.) were homogenized in buffer A containing: 50 mM Tris (pH 7.4), 0.32 M sucrose, 2 mM EGTA, 1 mM PMSF, 5 μg/ml aprotinen, 5 μg/ml Pepstatin A, and 1 μg/ml leupeptin. Homogenized cells were centrifuged at 4° C. at 20,000×g for 25 minutes, re-suspended in buffer A and re-centrifuged at 4° C. at 20,000×g for an additional 25 minutes. Total membrane protein was determined with a BCA kit (Pierce, Rockford, Ill.). Membranes were stored at −70° C. at a final membrane protein concentration of approximately 5 mg/ml.
The radioiodinated agonist analog of GnRH, [des-Gly^10,D-Ala^6]GnRH ethylamide (^125I-GnRH-A), was used as the radioligand. […] The reaction mixture was vortexed and incubated for 1 minute at room temperature. After one minute, the mixture was vortexed and allowed to incubate for an additional minute. 2 ml of 0.5 M acetic acid/1% BSA was added to the reaction tube and the mixture was added to a C18 Sep-Pak cartridge. The cartridge was washed with subsequent washes of 5 ml H2O and 5 ml 0.5 M acetic acid and then eluted with 5×1 ml of 60% CH3CN/40% 0.5 M acetic acid. The eluate was diluted with 3× volume of HPLC buffer A (0.1% TFA in H2O) and loaded onto a C18 column. The iodinated product was eluted over 20-25 min with a gradient of 25-100% CH3CN containing 0.1% TFA. The radioactive fractions (750 μl/fraction) were collected into clean polypropylene tubes containing 100 μl of 10% BSA. Fractions were assessed for biological activity by radioligand binding. Specific activity of the radioligand was approximately 2200 Ci/mmol.
Membranes were diluted to 0.01-0.5 mg/ml (depending upon the species of receptor) with assay buffer containing 50 mM HEPES (pH 7.4), 1 mM EDTA, 2.5 mM MgCl2, and 0.1% BSA. Membranes (diluted to utilize similar receptor numbers between assays) were incubated with approximately 0.04-0.06 nM ^125I-GnRH-A in the presence or absence of competing agents (0.1-10,000 nM) in a total volume of 200 μl in 96-well polypropylene plates for 1 hour at room temperature. Assays were stopped by rapid filtration onto 96-well GF/C filters soaked in 0.1% polyethylenimine (PEI) utilizing a Packard 96-well cell harvester. Filters were washed three times with ice-cold PBS (50 mM NaPO4, 0.9% NaCl, 2 mM MgCl2, and 0.02% NaN3, pH 7.4). 35 μl of scintillation cocktail was added to each filter well and filters were counted on a Packard Topcount. Control dose-response curves were generated to GnRH (0.1 nM-100 nM) in each competition binding experiment. Ki values were calculated from IC50 values according to Cheng et al., Biochemical Pharmacol. 22: 3099-3108, 1973. [formula]

[3] = In vitro metabolism: disappearance of parent compound in monkey liver microsomes; assay type: in vitro ADME; conditions: 5 uM compound, 30 minutes 37° C.
Protocol: as §1

[4] = In vitro metabolism: disappearance of parent compound in dog liver microsomes; assay type: in vitro ADME; conditions: 5 uM compound, 30 minutes 37° C.
Protocol: as §1

| SMILES | Fem. Rat (FR) % rem. 30′ [1] | Human % rem. 30′ [2] | Ki (human GnRH receptors) [nM] | Ki (rat GnRH receptor) [nM] | Monkey % rem. [3] [%] | Male Rat (MR) % rem. 30′ [1] [%] | Dog % rem. 30′ [4] [%] |
| --- | --- | --- | --- | --- | --- | --- | --- |
| COc1nc(NCCN(C)C(=O)c2ccc(Cc3cc4c(cc3C)C(C)(C)OC4(C)C)o2)nc(OC)c1NC(=O)c1ccc(Cc2cc3c(cc2C)C(C)(C)OC3(C)C)o1 [Example D2] | 84% and 82% | 76% and 83% | 14 | 11 |  |  |  |
| COc1nc(NCCN2CCOCC2)nc(OC)c1NC(=O)c1ccc(Cc2cc3c(cc2C)C(C)(C)OC3(C)C)o1 [Example D4, N-{4,6-dimethoxy-2-[(2-morpholin-4-ylethyl)amino]pyrimidin-5-yl}-5-[(1,1,3,3,6-pentamethyl-1,3-dihydro-2-benzofuran-5-yl)methyl]-2-furamide] | 76% | 83% | 6 | 4.1 | 2 | 38 | 34 |
| COc1nc(NCCN2CCCCC2)nc(OC)c1NC(=O)c1ccc(Cc2cc3c(cc2C)C(C)(C)OC3(C)C)o1 [Example D6, N-{4,6-Dimethoxy-2-[(2-piperidin-1-ylethyl)amino]pyrimidin-5-yl}-5-[(1,1,3,3,6-pentamethyl-1,3-dihydro-2-benzofuran-5-yl)methyl]-2-furamide] | 90% | 77% | 1.2 | 0.86 | 8 | 74 | 77 |
| COc1nc(NCCN(C)C)nc(OC)c1NC(=O)c1ccc(Cc2cc3c(cc2C)C(C)(C)OC3(C)C)o1 [Example D10, N-(2-{[2-(Dimethylamino)ethyl]amino}-4,6-dimethoxypyrimidin-5-yl)-5-[(1,1,3,3,6-pentamethyl-1,3-dihydro-2-benzofuran-5-yl)methyl]-2-furamide] | 79% | 77% | 7.3 | 2.6 | 28 | 66 | 66 |
| COc1nc(NCCCCN(C)C)nc(OC)c1NC(=O)c1ccc(Cc2cc3c(cc2C)C(C)(C)OC3(C)C)o1 [Example D11, N-(2-{[4-(Dimethylamino)butyl]amino}-4,6-dimethoxy-pyrimidin-5-yl)-5-[(1,1,3,3,6-pentamethyl-1,3-dihydro-2-benzofuran-5-yl)methyl]-2-furamide] | 56% | 62% | 1.1 | 0.5 | 20 | 42 | 56 |
| CNCCCNc1nc(OC)c(NC(=O)c2ccc(Cc3cc4c(cc3C)C(C)(C)OC4(C)C)o2)c(OC)n1 [Example D60, N-(4,6-Dimethoxy-2-{[3-(methylamino)propyl]amino}-5-pyrimidinyl)-5-[(1,1,3,3,6-pentamethyl-1,3-dihydro-2-benzofuran-5-yl)methyl]-2-furamide] |  |  | 1 | 0.32 |  |  |  |
| COc1nc(NCc2c(F)cccc2F)nc(OC)c1NC(=O)c1ccc(Cc2cc3c(cc2C)C(C)(C)OC3(C)C)o1 [Example D73, N-{2-[(2,6-difluorobenzyl)amino]-4,6-dimethoxypyrimidin-5-yl}-5-[(1,1,3,3,6-pentamethyl-1,3-dihydro-2-benzofuran-5-yl)methyl]-2-furamide] |  |  | 4 | 2.6 |  |  |  |
| COCCNc1nc(OC)c(NC(=O)c2ccc(Cc3cc4c(cc3C)C(C)(C)OC4(C)C)o2)c(OC)n1 [Example D74] |  |  | 3 | 1.1 |  |  |  |
| COc1nc(NCCCN(C)C)nc(OC)c1NC(=O)c1ccc(Cc2c(C)cc(C)c3c2OCC3(C)C)o1 [Example H4, N-(2-{[3-(Dimethylamino)propyl]amino}-4,6-dimethoxypyrimidin-5-yl)-5-[(3,3,4,6-tetramethyl-2,3-dihydro-1-benzofuran-7-yl)methyl]-2-furamide] |  |  | 13 | 16 |  |  |  |
| COc1nc(NCCCN2CCN(C)CC2)nc(OC)c1NC(=O)c1ccc(Cc2c(C)cc(C)c3c2OCC3(C)C)o1 [Example H5] |  |  | 11 | 8.2 |  |  |  |
| COc1nc(NCCCN2CCOCC2)nc(OC)c1NC(=O)c1ccc(Cc2c(C)cc(C)c3c2OCC3(C)C)o1 [Example H6, N-{4,6-Dimethoxy-2-[(3-morpholin-4-ylpropyl)amino]-pyrimidin-5-yl}-5-[(3,3,4,6-tetramethyl-2,3-dihydro-1-benzofuran-7-yl)methyl]-2-furamide] |  |  | 12 | 12 |  |  |  |
| COc1nc(NCCCN2CCOCC2)nc(OC)c1NC(=O)c1ccc(Cc2c(C)cc3c(c2C)C(C)(C)CCO3)o1 [Example I1, N-{4,6-Dimethoxy-2-[(3-morpholin-4-ylpropyl)amino]pyrimidin-5-yl}-5-[(4,4,5,7-tetramethyl-3,4-dihydro-2H-chromen-6-yl)methyl]-2-furamide] |  |  | 27 | 26 |  |  |  |
| COc1nc(NCCCN2CCN(C)CC2)nc(OC)c1NC(=O)c1ccc(Cc2c(C)cc3c(c2C)C(C)(C)CCO3)o1 [Example I2, N-(4,6-Dimethoxy-2-{[3-(4-methylpiperazin-1-yl)propyl]amino}pyrimidin-5-yl)-5-[(4,4,5,7-tetramethyl-3,4-dihydro-2H-chromen-6-yl)methyl]-2-furamide] |  |  | 24 | 16 |  |  |  |
| COc1nc(NCCCN(C)C)nc(OC)c1NC(=O)c1ccc(Cc2c(C)cc3c(c2C)C(C)(C)CCO3)o1 [Example I3, N-(2-{[3-(Dimethylamino)propyl]amino}-4,6-dimethoxypyrimidin-5-yl)-5-[(4,4,5,7-tetramethyl-3,4-dihydro-2H-chromen-6-yl)methyl]-2-furamide] |  |  | 36 | 22 |  |  |  |
